In patent US10071974B2, “Morpholine and 1,4-oxazepane amides as somatostatin receptor subtype 4 (SSTR4) agonists” (Boehringer Ingelheim International GmbH, priority 2014, dated 2018):

Assays:
[1] = molecular target: human Somatostatin 4 Receptor (SSTR4) (Homo sapiens (Human), UniProt P31391); assay: cAMP assay with human somatostatin 4 receptor (hSSTR4 expressing H4 cells); type: cell-based; conditions: read-out: SSTR4 agonism EC50
[2] = in vitro; conditions: human, microsomes, pH 7.6

Chain of human Somatostatin 4 Receptor (SSTR4) (P31391 whole entry): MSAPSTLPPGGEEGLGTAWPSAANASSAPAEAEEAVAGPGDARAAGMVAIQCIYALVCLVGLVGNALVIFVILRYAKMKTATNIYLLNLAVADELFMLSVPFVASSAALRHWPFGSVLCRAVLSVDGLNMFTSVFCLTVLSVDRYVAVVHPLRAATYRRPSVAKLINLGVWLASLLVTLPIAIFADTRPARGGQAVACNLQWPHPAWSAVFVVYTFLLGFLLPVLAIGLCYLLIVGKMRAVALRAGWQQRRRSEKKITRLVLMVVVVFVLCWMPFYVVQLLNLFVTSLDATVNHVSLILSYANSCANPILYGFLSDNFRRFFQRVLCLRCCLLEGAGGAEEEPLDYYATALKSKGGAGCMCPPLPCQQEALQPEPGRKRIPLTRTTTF

SMILES | EC50 [1] | half-life at 1 μM [2]
Cc1cc2ccccc2c(C(C)(C)NC(=O)[C@@H]2CNCCO2)n1 [Example 43] |  | 110 min
Cn1nc(C(C)(C)NC(=O)C2CCNCCO2)c2ccccc21 (single isomer, unassigned) [Example 27] | 55.8 nM | > 130 min
Cc1cccn2c(C3(NC(=O)C4CNCCOC4)CCC3)ncc12 (single isomer, unassigned) [Example 131] | 19 nM | 
Cc1cccn2c(C(C)(C)NC(=O)C3CNCCCO3)ncc12 (single isomer, unassigned) [Example 145] | 29.1 nM | > 130 min
CC(C)(NC(=O)C1CCNCCO1)c1noc2c(F)cccc12 (single isomer, unassigned) [Example 69] | 434 nM | 
Cc1cccn2c(C(C)(C)NC(=O)C3CNCCOC3)nc(C3CC3)c12 (single isomer, unassigned) [Example 140] | 1000 nM | 
CC(C)(NC(=O)[C@@H]1CNCCO1)c1noc2c(Cl)cccc12 [Example 71] | 35.1 nM | 
Cc1cc2ccccc2c(C(C)(C)NC(=O)C2CNCCCO2)n1 (racemic) [Example 47] | 25.9 nM | 
CC(C)(NC(=O)[C@@H]1CNCCO1)c1ccnc2ccccc12 [Example 11] | 26.3 nM | 
Cc1cc2ccccc2c(C(C)(C)NC(=O)C2CCNCCO2)n1 (single isomer, unassigned) [Example 51] | 42.9 nM | 
CC(C)(NC(=O)C1CNCCOC1)c1n[nH]c2c(Cl)cccc12 (single isomer, unassigned) [Example 94] | 31 nM | 
Cc1cccn2c(C(C)(NC(=O)[C@@H]3CNCCO3)C3CC3)ncc12 (single isomer, unassigned) [Example 110] | 1000 nM | 
Cc1nc2ccccn2c1C(C)(C)NC(=O)[C@@H]1CNCCO1 [Example 106] | 230 nM | 
Cn1nc(C(C)(C)NC(=O)[C@@H]2CNCCO2)c2cccc(C(F)(F)F)c21 [Example 31] | 52.7 nM | 
Cn1nc(C(C)(C)NC(=O)C2CNCCCO2)c2ccccc21 (racemic) [Example 23] | 36.5 nM | > 130 min
CC(C)(NC(=O)C1CNCCCO1)c1noc2c(F)cccc12 (single isomer, unassigned) [Example 67] | 23000 nM | 
Cc1cccn2c(C(C)(C)NC(=O)[C@@H]3CNCCO3)cnc12 [Example 108] | 58.1 nM | 
CC(C)(NC(=O)C1CNCCCO1)c1noc2c(F)cccc12 (racemic) [Example 65] | 998 nM | 
Cc1cccc2c(C(C)(C)NC(=O)C3CNCCOC3)n[nH]c12 (single isomer, unassigned) [Example 59] | 1070 nM | 
Cn1nc(C(C)(C)NC(=O)[C@@H]2CNCCO2)c2c(F)cccc21 [Example 29] | 21.6 nM | 

SMILES | EC50 [1] | half-life at 1 μM [2]
Cc1cccn2c(C3(NC(=O)C4CNCCOC4)CCC3)ncc12 (single isomer, unassigned) [Example 132] | 10000 nM | 
Cc1cccn2c(C3(NC(=O)[C@@H]4CNCCO4)CCOC3)ncc12 (single isomer, unassigned) [Example 115] | 294 nM | 
Cc1cc2ccccc2c(C(C)(C)NC(=O)C2CCNCCO2)n1 (single isomer, unassigned) [Example 52] | 48.9 nM | 
Cc1cccn2c(C(C)(C)NC(=O)C3CCNCCO3)ncc12 (single isomer, unassigned) [Example 142] | 90.5 nM | 
Cc1cccn2c(C(C)(C)NC(=O)C3CNCCOC3)nc(C3CC3)c12 (racemic) [Example 138] | 59.7 nM | 
Cc1ncc(C(C)(C)NC(=O)C2CNCCOC2)c2ccccc12 (single isomer, unassigned) [Example 42] | 415 nM | 
Cc1cccn2c(C(C)(C)NC(=O)C3CNCCOC3)ccc12 (single isomer, unassigned) [Example 137] | 1430 nM | 
Cc1cc(F)cn2c(C(C)(C)NC(=O)[C@@H]3CNCCO3)ncc12 [Example 100] | 103 nM | 
CC(C)(NC(=O)[C@@H]1CNCCO1)c1nc(C2CC2)c2c(F)cccn12 [Example 103] | 60.7 nM | 
Cc1cccn2c(C(C)(C)NC(=O)C3CCNCCO3)ncc12 (single isomer, unassigned) [Example 143] | 77.6 nM | 
Cn1nc(C(C)(C)NC(=O)C2CNCCOC2)c2cccc(Cl)c21 (single isomer, unassigned) [Example 81] | 152 nM | 
CC(C)(NC(=O)C1CNCCOC1)c1noc2c(F)cccc12 (racemic) [Example 62] | 65.7 nM | 
Cc1cc2cccnc2c(C(C)(C)NC(=O)C2CNCCOC2)n1 (stereo not drawn) [Example 2] | 90.1 nM | 
CC(C)(COc1nccc2ccccc12)NC(=O)C1CNCCOC1 (single isomer, unassigned) [Example 18] | 209 nM | 
CC(C)(NC(=O)C1CCNCCO1)c1noc2c(F)cccc12 (single isomer, unassigned) [Example 70] | 544 nM | 
Cc1nc(C(C)(C)NC(=O)C2CNCCOC2)n2cccc(F)c12 (single isomer, unassigned) [Example 122] | 1000 nM | 
CC(C)(NC(=O)C1CNCCOC1)c1nc2ccc(Cl)cc2[nH]1 (stereo not drawn) [Example 13] | 356 nM | 
CC(C)(COc1cnccc1C(F)(F)F)NC(=O)C1CNCCOC1 (stereo not drawn) [Example 4] | 272 nM | 
CC(C)(NC(=O)[C@@H]1CNCCO1)c1nc2ccc(Cl)cc2[nH]1 [Example 14] | 796 nM | 
COc1cccn2c(C(C)(C)NC(=O)C3CNCCOC3)ncc12 (racemic) [Example 123] | 32.4 nM | 

The remaining lines, values ahead:

EC50 [1] | half-life at 1 μM [2] | SMILES
1.4 nM | > 130 min | CC(C)(NC(=O)C1CNCCOC1)c1n[nH]c2c(Cl)cccc12 (single isomer, unassigned) [Example 93]
1.3 nM | > 130 min | Cc1ncc(C(C)(C)NC(=O)[C@@H]2CNCCO2)c2ccccc12 [Example 38]
2 nM | > 130 min | Cc1cccc2c(C(C)(C)NC(=O)C3CNCCOC3)nn(C)c12 (single isomer, unassigned) [Example 85]
5 nM | > 130 min | Cc1cccn2c(C(C)(C)NC(=O)C3CNCCOC3)nc(C)c12 (racemic) [Example 128]
5.1 nM | > 130 min | Cn1nc(C(C)(C)NC(=O)C2CNCCOC2)c2cccc(F)c21 (single isomer, unassigned) [Example 77]
3.4 nM | > 130 min | Cc1cc2ccccc2c(C(C)(C)NC(=O)C2CNCCOC2)n1 (single isomer, unassigned) [Example 46]
13.1 nM | > 130 min | Cn1nc(C(C)(C)NC(=O)[C@@H]2CNCCO2)c2ccc(F)cc21 [Example 30]
3.1 nM | > 130 min | CC(C)(NC(=O)C1CNCCOC1)c1n[nH]c2c(F)cccc12 (single isomer, unassigned) [Example 89]
0.7 nM | > 130 min | Cc1ncc(C(C)(C)NC(=O)C2CNCCOC2)c2ccccc12 (single isomer, unassigned) [Example 41]
3.4 nM | > 130 min | CC(C)(NC(=O)[C@@H]1CNCCO1)c1n[nH]c2c(Cl)cccc12 [Example 91]
2.4 nM | > 130 min | Cc1cccc2c(C(C)(C)NC(=O)[C@@H]3CNCCO3)n[nH]c12 [Example 57]
13 nM | > 130 min | CC(C)(NC(=O)[C@@H]1CNCCO1)c1ncc2c(Cl)cccn12 [Example 96]
9.3 nM | > 130 min | Cc1cccn2c(C(C)(C)NC(=O)C3CNCCOC3)ncc12 (racemic) [Example 116]
5.9 nM | > 130 min | CC(C)(NC(=O)C1CNCCOC1)c1ncc2c(Cl)cccn12 (single isomer, unassigned) [Example 120]
18.9 nM | > 130 min | Cc1cc2ccccc2c(C(C)(C)NC(=O)C2CNCCCO2)n1 (single isomer, unassigned) [Example 48]
1.3 nM | > 130 min | Cc1cccc2c(C(C)(C)NC(=O)C3CNCCOC3)n[nH]c12 (single isomer, unassigned) [Example 60]

EC50 [1] | half-life at 1 μM [2] | SMILES
11.1 nM |  | CC(C)(NC(=O)C1CNCCOC1)c1n[nH]c2c(F)cccc12 (racemic) [Example 88]
3 nM | > 130 min | Cn1nc(C(C)(C)NC(=O)C2CNCCOC2)c2cccc(Cl)c21 (single isomer, unassigned) [Example 82]
7 nM | > 130 min | Cc1cc2ccccc2c(C(C)(C)NC(=O)C2CNCCOC2)n1 (racemic) [Example 44]
4.1 nM |  | Cc1cccc2c(C(C)(C)NC(=O)C3CNCCOC3)n[nH]c12 (racemic) [Example 58]
16.4 nM |  | COc1cccn2c(C(C)(C)NC(=O)C3CNCCOC3)ncc12 (single isomer, unassigned) [Example 125]
7.7 nM |  | Cc1cccc2c(C(C)(C)NC(=O)C3CNCCOC3)cnn12 (racemic) [Example 33]
2.5 nM |  | CC(C)(NC(=O)C1CNCCOC1)c1n[nH]c2c(Cl)cccc12 (racemic) [Example 92]
3.7 nM | 84 min | Cc1cccn2c(C(C)(C)NC(=O)[C@@H]3CNCCO3)ccc12 [Example 109]
2.9 nM | > 130 min | Cc1cccc2c(C(C)(C)NC(=O)C3CNCCOC3)noc12 (single isomer, unassigned) [Example 55]
3.9 nM | > 130 min | Cn1nc(C(C)(C)NC(=O)C2CNCCOC2)c2ccccc21 (racemic) [Example 20]
3.7 nM | > 130 min | Cc1cccn2c(C(C)(C)NC(=O)C3CNCCOC3)ccc12 (single isomer, unassigned) [Example 136]
11.7 nM | > 130 min | Cc1nnc(C(C)(C)NC(=O)C2CNCCOC2)c2ccccc12 (racemic) [Example 37]
10.9 nM |  | Cc1cccc2c(C(C)(C)NC(=O)[C@@H]3CNCCO3)cnn12 [Example 32]
2.6 nM | > 130 min | Cc1cccn2c(C(C)(C)NC(=O)C3CNCCOC3)ncc12 (single isomer, unassigned) [Example 117]
5.7 nM | > 130 min | Cc1cccc2c(C(C)(C)NC(=O)C3CNCCOC3)cnn12 (single isomer, unassigned) [Example 34]
